# From EP2533787B1, “USE OF ISORHAMNETIN TRIGLYCOSIDES” (Dr. Willmar Schwabe GmbH & Co. KG, priority 2010, dated 2011)
# Marks after values point to notes of the source that are not given here.
# Columns and labels:
# Mäuse = assay: Light/dark box test ("Hell-Dunkel-Box"), frequency of compartment changes; assay type: in vivo; conditions: for Anzahl der Feldwechsel im Vergleich zur Vehikel-Kontrolle / Wechselhäufigkeit in der "Hell-Dunkel-Box": single dose; for Anzahl der Feldwechsel im Vergleich zur Vehikel-Kontrolle: tested after 60 min, observed 3 min; for Erkundungsverhalten ("exploratory behavior"): oral application in mice; for Erkundungsverhalten ("exploratory behavior") / Wechselhäufigkeit in der "Hell-Dunkel-Box": result in words; for Wechselhäufigkeit in der "Hell-Dunkel-Box": oral
# From the text: Die aktivitätssteigernde Wirkung der Isorhamnetintriglycoside 2, 3 und 4 wurde an Versuchstieren im sogenannten "Hell-Dunkel-Box" System getestet.
# Das Prinzip des verwendeten Testsystems beruht darauf, dass Mäuse einem Verhaltensparadigma ausgesetzt werden, das zwei gegensätzliche Verhaltensmuster aktiviert. Die Box besteht aus zwei Kompartimenten von denen ein kleinerer dunkler Teil von einem hellen und größeren Teil durch eine Wand getrennt wird. In der Mitte der Wand befindet sich eine kleine Öffnung, die es dem Versuchstier ermöglicht zwischen den beiden Kompartimenten zu wechseln. Der Versuch beginnt mit dem Einsetzen der Maus in das helle Feld. Das angeborene Dunkelpräferenzverhalten führt dazu, dass die Tiere nach einer kurzen Latenzzeit in das dunkle -sichere Kompartiment wechseln. Nach kurzer Zeit führt aber das ebenso stark ausgeprägte Neugierverhalten (Erkundungsverhalten) dazu, dass die Mäuse wieder in das helle Kompartiment wechseln. Somit stehen zwei angeborene Verhaltensweisen, nämlich die Dunkelpräferenz (Vermutlich als Schutz vor Beutegreifern) und das Erkundungsverhalten (wichtig für Nahrungssuche, Partnersuche) im Konflikt, die für eine Dauer von 3 Minuten aufgezeichnet werden. Arzneimittel, die beruhigende pharmakologische Effekte haben, führen zu einer Verminderung der Wechselhäufigkeit zwischen den Kompartimenten, während Arzneimittel mit stimulierenden Aktivitäten die Wechselhäufigkeit steigern. Die Wechselhäufigkeit ist somit ein Index für aktivitätsgesteuertes Erkundungsverhalten als Zeichen einer Habituation (M. Bourin, and M. Hascoet, "The mouse light/dark box test", Eur. J. Pharmacol. 463 (2003) 55 - 65). Die Versuchsanordnung betrachtet somit Verhaltensparameter, die geeignet sind das Maß an Aktivität zu messen und zu bewerten.
# Um die aktivitätssteigernden Effekte der Isorhamnetintriglycoside 2, 3 und 4 zu testen wurden Mäuse einmalig mit verschieden hohen Dosierungen der Flavone behandelt. Zum Vergleich wurden einige Tiere entweder mit dem sedierenden Benzodiazepin Lorazepam oder mit dem aktivitätssteigernden Präparat Methamphetamin oder mit einer wirkungslosen Kontrolllösung behandelt. Nach 60 Minuten wurden die Tiere in das helle Kompartiment der "Hell-Dunkel-Box" gesetzt und über einen Zeitraum von 3 Minuten beobachtet. Als Maß der Aktivität wurde die Häufigkeit der Feldwechsel gemessen. […] Tabelle 2: Wirkung der Isorhamnetintriglycoside 2 und 3 im Vergleich zum Anxiolytikum Lorazepam. Gemessen wird die Anzahl der Feldwechsel im Vergleich zur Vehikel-Kontrolle.
# [1] = system: Hippocampus Schnittpräparaten; assay: Long-term potentiation (LTP) in hippocampal slice preparations, POP spikes; assay type: cell-based, Wistar-Ratten; conditions: result in words; for Langzeitpotenzierung: rat brain slice preparations, compared with buffer solution; for Reizantwort nach LTP-Stimulation: size of POP spikes after repeated LTP induction, compared with solvent
# From the text: Um den Einfluss der Isorhamnetintriglycoside 2 und 4 auf mentale Funktionen zu testen wurde die Induktion der sogenannten Langzeitpotenzierung (LTP) verwendet. In Hirnschnitt-Präparaten von Wirbeltieren dient LTP als zelluläres Modell für Lernvorgänge, vor allem im Arbeitsgedächtnis (T. V. P. Bliss, and G. L. Collingridge, "A synaptic model of memory: Long-term potentiation in the hippocampus", Nature 361 (1993) 31 - 39). Durch wiederholte Reizung von Neuronen wird eine langandauernde Verstärkung der synaptischen Übertragung induziert, die durch eine Stabilisierung oder Aktivierung sogenannter ruhender Synapsen ("silent synapses) zu einer Neubildung von Verschaltungsmustern zustande kommt (Lernen). Die am besten untersuchte Region des Gehirns für LTP Messungen ist der Hippocampus, der für die Verarbeitung von Lernvorgängen eine zentrale Rolle spielt, allerdings findet LTP auch in anderen Hirnregionen statt (G. A. Kerchner, and R.A. Nicoll, "Silent synapses and the emergence of a postsynaptic mechanism for LTP", Nat. Rev. Neurosci. 9 (2008) 813 - 825). Bei Ratten und anderen Nagern ist die Langzeitpotenzierung insbesondere mit der Ausbildung des räumlichen Lernens assoziiert (J. R. Whitlock, A. J. Heynen, M. G. Shuler, and M. F. Bear, "Learning induced long-term potentiation in the hippocampus", Science 313 (2006) 1093 - 1097).
# Die Experimente wurden an Hippocampus Schnittpräparaten von 8-12 Wochen alten weiblichen Wistar-Ratten durchgeführt. Die Hirnschnitte werden bei 35°C in einer Messkammer gehalten und mit einer Nährlösung perfundiert. Glasmikroelektroden werden im dendritischen Bereich des Stratum pyramidale (CA1) platziert um "Population Spikes" (POP-Spikes) zu registrieren. Die Schaffer-Kollateralen werden mit bipolaren Reizelektroden aus Platin-Draht stimuliert und die resultierenden Aktionspotentiale (POP Spikes) gemessen. Der eigentliche Versuch beginnt nach einer Äquilibrierungszeit von 60 Minuten in welcher die Hirnschnitte nicht manipuliert werden. Anschließend werden die Elektroden platziert und begonnen die Schaffer Kollateralen mit steigender Stromstärke zu stimulieren. Nach Erreichen der maximalen Reizantwort wird die Stromstärke so reduziert, dass nur noch 50% der maximal möglichen Reizstärke erreicht werden. Dadurch kann im späteren Versuch überprüft werden ob eine Verstärkung der Reizantwort möglich ist. Anschließend wird alle 10 Sekunden mit der submaximalen Reizstärke stimuliert und die POP Spikes registriert. Die erste LTP-Induktion beginnt mit einer repetitiven Reizung (100 Hz für 1 Sekunde). Der 1. Stimulation folgt die erneute Einzelstimulation (alle 10 Sekunden ein submaximaler Reiz) für zehn Minuten. Diese erste Stimulation dient der Überprüfung, ob der Hirnschnitt eine Reizantwort auf die LTP-Induktion zeigt. […]
structure (smiles),measurement,setting,value
O=C1Nc2ccc(Cl)cc2C(c2ccccc2Cl)=NC1O (centres unmarked) [Lorazepam],Anzahl der Feldwechsel im Vergleich zur Vehikel-Kontrolle,"Mäuse; 0,3 mg/kg po",-46 % der Kontrolle
CNC(C)Cc1ccccc1 (centres unmarked) [Methamphetamin],Wechsel Anzahl,"Mäuse; 0,3 mg/kg peroral","7,5 ± 2,1"
same,Wechsel Prozent der Kontrolle,"Mäuse; 0,3 mg/kg peroral",+7%
same,Wechsel Anzahl,"Mäuse; 1,0 mg/kg peroral","10,6 ± 1,6"
same,Wechsel Prozent der Kontrolle,"Mäuse; 1,0 mg/kg peroral",+51%
same,Wechsel Anzahl,"Mäuse; 3,0 mg/kg peroral","10,9 ± 3,3"
same,Wechsel Prozent der Kontrolle,"Mäuse; 3,0 mg/kg peroral",+56%
same,Wechsel Anzahl,"Mäuse; 10,0 mg/kg peroral","0,6 ± 1,2"
same,Wechsel Prozent der Kontrolle,"Mäuse; 10,0 mg/kg peroral",-91%
"COc1cc(-c2oc3cc(O)cc(O)c3c(=O)c2O[C@@H]2O[C@H](CO[C@@H]3O[C@@H](C)[C@H](O)[C@@H](O)[C@H]3O)[C@H](O)[C@H](O)[C@H]2O[C@@H]2OC[C@@H](O)[C@H](O)[C@H]2O)ccc1O [Verbindung 2, 3-[(O-6-Deoxy-α-L-mannopyranosyl-(1→6)-O-[ß-D-xylopyranosyl-(1→2)]-ß-D-galactopyranosyl)oxy]-5,7-dihydroxy-2-(4-hydroxy-3-methoxy-phenyl)-4H-1-benzopyran-4-on]",Anzahl der Feldwechsel im Vergleich zur Vehikel-Kontrolle,Mäuse; 10 mg/kg po,+100 # % der Kontrolle
same,Anzahl der Feldwechsel im Vergleich zur Vehikel-Kontrolle,Mäuse; 30 mg/kg po,+38 % der Kontrolle
same,"Erkundungsverhalten (""exploratory behavior"")",Mäuse,"deutlichen, dosisabhängigen und statistisch signifikantem Ansteigen des Erkundungsverhaltens"
same,"Wechselhäufigkeit in der ""Hell-Dunkel-Box""",Mäuse; 30 mg/kg,geht dieser Effekt verloren
same,"Wechselhäufigkeit in der ""Hell-Dunkel-Box""",Mäuse; 3 und 10 mg/kg,"deutlichen, signifikanten Steigerung der Wechselhäufigkeit"
same,Langzeitpotenzierung,[1],deutlich gesteigert
same,Reizantwort nach LTP-Stimulation,[1],deutliche Steigerung der Reizantwort
"COc1cc(-c2oc3cc(O)cc(O)c3c(=O)c2O[C@@H]2O[C@H](CO[C@@H]3O[C@@H](C)[C@H](O[C@@H]4O[C@@H](C)[C@H](O)[C@@H](O)[C@H]4O)[C@@H](O)[C@H]3O)[C@@H](O)[C@H](O)[C@H]2O)ccc1O [Verbindung 3, 3-[(O-6-Deoxy-α-L-mannopyranosyl-(1→4)-O-6-deoxy-α-L-mannopyranosyl-(1→6)-ß-D-glucopyranosyl)oxy]-5,7-dihydroxy-2-(4-hydroxy-3-methoxyphenyl)-4H-1-benzopyran-4-on]",Anzahl der Feldwechsel im Vergleich zur Vehikel-Kontrolle,Mäuse; 3 mg/kg po,+15 % der Kontrolle
same,"Erkundungsverhalten (""exploratory behavior"")",Mäuse,"deutlichen, dosisabhängigen und statistisch signifikantem Ansteigen des Erkundungsverhaltens"
"COc1cc(-c2oc3cc(O)cc(O)c3c(=O)c2O[C@@H]2O[C@H](CO[C@@H]3O[C@@H](C)[C@H](O)[C@@H](O)[C@H]3O)[C@@H](O)[C@H](O)[C@H]2O[C@@H]2OC[C@@H](O)[C@H](O)[C@H]2O)ccc1O [Verbindung 4, 3-[(O-6-Deoxy-α-L-mannopyranosyl-(1→6)-O-[ß-D-xylopyranosyl-(1→2)]-ß-D-glucopyranosyl)oxy]-5,7-dihydroxy-2-(4-hydroxy-3-methoxyphenyl)-4H-1-benzopyran-4-on]",Langzeitpotenzierung,[1],deutlich gesteigert
same,Reizantwort nach LTP-Stimulation,[1],deutliche Steigerung der Reizantwort
